This is an account of results in US9447134B2 (priority 2012, dated 2016).

Data set [1] deals with T1, CpIMPDH (Cryptosporidium parvum, UniProt Q8T6T2).
T1 sequence (Q8T6T2 1-400): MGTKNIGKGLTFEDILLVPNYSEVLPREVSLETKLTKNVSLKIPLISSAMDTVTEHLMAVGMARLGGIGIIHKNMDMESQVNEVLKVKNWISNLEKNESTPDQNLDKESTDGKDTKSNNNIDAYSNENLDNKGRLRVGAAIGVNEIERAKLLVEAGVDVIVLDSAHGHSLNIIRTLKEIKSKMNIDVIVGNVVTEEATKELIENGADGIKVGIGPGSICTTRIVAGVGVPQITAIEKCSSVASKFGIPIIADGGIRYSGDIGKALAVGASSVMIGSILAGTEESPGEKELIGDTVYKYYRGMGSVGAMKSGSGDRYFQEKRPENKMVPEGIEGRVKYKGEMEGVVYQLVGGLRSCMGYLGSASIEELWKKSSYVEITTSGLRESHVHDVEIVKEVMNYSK

Data set [2] can be described thus: Mouse liver microsomal stability.
The target of another data set is F. tularensis IMPDH (Francisella tularensis, UniProt Q5NFC2). Put plainly: biochemical.
The next data set addresses B. anthracis IMPDH (Bacillus anthracis, UniProt A0A6L8P2U9). Put plainly: biochemical.
Data set [3] concerns the target T1, CpIMPDH. Put plainly: biochemical.
The target in data set [4] is T1, CpIMPDH. This is another data set of the same source.
For another data set, the system named is Caco-2 cells. To be noted: cited from earlier work.
The conditions of data set [5]: mouse, in vivo; cited from earlier work.
The subject of a further data set is Cryptosporidium. To be noted: mouse models; cited from earlier work.

B. anthracis IMPDH, sequence (A0A6L8P2U9 1-487): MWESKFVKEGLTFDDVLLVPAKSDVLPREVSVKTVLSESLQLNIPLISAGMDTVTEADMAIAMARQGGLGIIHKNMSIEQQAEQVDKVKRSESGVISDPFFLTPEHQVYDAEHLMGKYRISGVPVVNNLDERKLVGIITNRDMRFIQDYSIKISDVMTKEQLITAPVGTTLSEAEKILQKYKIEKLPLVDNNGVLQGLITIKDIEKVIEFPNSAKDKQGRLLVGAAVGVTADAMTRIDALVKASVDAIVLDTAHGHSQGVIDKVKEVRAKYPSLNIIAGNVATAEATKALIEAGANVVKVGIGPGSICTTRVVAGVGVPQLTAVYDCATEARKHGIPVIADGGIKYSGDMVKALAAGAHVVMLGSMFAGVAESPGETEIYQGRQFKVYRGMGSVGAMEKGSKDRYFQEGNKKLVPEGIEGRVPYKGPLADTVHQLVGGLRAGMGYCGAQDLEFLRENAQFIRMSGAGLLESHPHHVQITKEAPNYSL
F. tularensis IMPDH, sequence (Q5NFC2 1-486): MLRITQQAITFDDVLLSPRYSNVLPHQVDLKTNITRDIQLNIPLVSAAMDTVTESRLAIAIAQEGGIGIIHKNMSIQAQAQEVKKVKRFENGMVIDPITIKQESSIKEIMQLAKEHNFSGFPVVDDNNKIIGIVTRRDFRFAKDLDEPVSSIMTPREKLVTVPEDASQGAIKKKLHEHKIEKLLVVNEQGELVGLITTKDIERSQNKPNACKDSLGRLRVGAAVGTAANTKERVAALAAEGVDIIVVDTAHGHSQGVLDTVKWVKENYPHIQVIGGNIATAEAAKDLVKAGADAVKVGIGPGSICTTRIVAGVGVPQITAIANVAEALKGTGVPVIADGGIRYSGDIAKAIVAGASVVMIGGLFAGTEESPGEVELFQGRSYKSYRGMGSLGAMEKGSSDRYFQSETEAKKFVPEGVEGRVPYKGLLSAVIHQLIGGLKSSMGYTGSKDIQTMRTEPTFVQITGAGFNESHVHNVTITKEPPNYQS

As for `Cn1nc(CC(=O)Nc2ccc(Cl)c(C(F)(F)F)c2)c2ccccc2c1=O`, at CpIMPDH [1], the “inhibition mechanism with respect to NAD+” value is on record as “pure noncompetitive inhibitor”. Besides, the Ki at CpIMPDH [1] (read-out: Kis, with respect to NAD+) was 0.0034 ± 0.0002 µM. Moreover, the “half-life in mouse liver microsomes” value in [2] (presence or absence of NADPH not given) is on record as 79 min.

In general, melting point refers to the temperature, or range, at which the solid turns liquid. Take `C=C(C)c1cccc(C(C)(C)NC(=O)Nc2ccccc2)c1` [Compound 5a, 1-Phenyl-3-(2-(3-(prop-1-en-2-yl)phenyl)propan-2-yl)urea]: the melting point was 188 to 190 °C.

In turn, `C=C(C)c1cccc(C(C)(C)NC(=O)Nc2ccc(Cl)c(Cl)c2)c1` [Compound 5h, 1-(3,4-Dichlorophenyl)-3-(2-(3-(prop-1-en-2-yl)phenyl)propan-2-yl)urea] showed a melting point of 198 to 200 °C.

`C=C(C)c1cccc(C(C)(C)NC(=O)Nc2ccc3ccccc3c2)c1` [Compound 5o, 1-(Naphthalen-2-yl)-3-(2-(3-(prop-1-en-2-yl)phenyl)propan-2-yl)urea] came in with a melting point of 201 to 203 °C.

In turn, `C=C(C)c1cccc(C(C)(C)NC(=O)Nc2ccc3ccccc3n2)c1` [Compound 5t, 1-(2-(3-(prop-1-en-2-yl)phenyl)propan-2-yl)-3-(quinolin-2-yl)urea] had a melting point of 126 to 128 °C.

`C/C(=N\O)c1cccc(C(C)(C)NC(=O)Nc2ccc(Cl)c(C(F)(F)F)c2)c1` [Compound 7a, (E)-1-(4-Chloro-3-(trifluoromethyl)phenyl)-3-(2-(3-(1-(hydroxyimino)ethyl)phenyl)propan-2-yl)urea] showed a melting point of 194 to 196 °C.

The compound `C/C(=N\O)c1cccc(C(C)(C)NC(=O)Nc2ccc3cccnc3c2)c1` [Compound 7e, (E)-1-(2-(3-(1-(Hydroxyimino)ethyl)phenyl)propan-2-yl)-3-(quinolin-7-yl)urea] returned a melting point of 164 to 166 °C.

On to `CC1(c2cccc(CNC(=O)Nc3ccc(Cl)cc3)c2)OCCO1` [Compound 22, 1-(4-Chlorophenyl)-3-(3-(2-methyl-1,3-dioxolan-2-yl)benzyl)urea], for which the “half-life in mouse liver microsomes” value in [2] (37° C., absence of NADPH) is listed as “quite stable”; in data set [2] (37° C., presence of NADPH), 25 min.

By IC50 is commonly meant the concentration at which inhibition is half-maximal. Low values mean greater potency in that assay, high ones weaker potency in that assay. For the compound `Cn1nc(CC(=O)Nc2ccc(Br)c(C(F)(F)F)c2)c2ccccc2c1=O` [Compound D45], the IC50 on F. tularensis IMPDH came to 0.27 µM.

The compound `Cn1nc(CC(=O)Nc2ccc(Cl)c(F)c2)c2ccccc2c1=O` [Compound D52] showed a half-maximal inhibitory concentration (IC50) against B. anthracis IMPDH of 0.9 µM.

Consider `Cc1cc2cc(NC(=O)Cc3nn(C)c(=O)c4ccccc34)ccc2o1` [Compound D62, N-(2-methylbenzofuran-5-yl)-2-(3-methyl-4-oxo-3,4-dihydrophthalazin-1-yl)-acetamide], for which the IC50 against CpIMPDH [3] worked out at 0.07 µM.

Turning to `Cn1nc(CC(=O)Nc2ccc3ocnc3c2)c2ccccc2c1=O` [Compound D64, N-(benzo[d]oxazol-5-yl)-2-(3-methyl-4-oxo-3,4-dihydrophthalazin-1-yl)acetamide], the “CpIMPDH inhibitory activity (SAR, in words)” value (“CpIMPDH inhibitory activity” below) at CpIMPDH [4] was “inactive”.

Regarding `Cn1nc(CC(=O)Nc2ccc3[nH]c4ccccc4c3c2)c2ccccc2c1=O` [Compound D70, N-(9H-carbazol-3-yl)-2-(3-methyl-4-oxo-3,4-dihydrophthalazin-1-yl)acetam-de], on CpIMPDH [4], the “CpIMPDH inhibitory activity” value was “not active”.

For `CCn1c2ccccc2c2cc(NC(=O)Cc3nn(C)c(=O)c4ccccc34)ccc21` [Compound D71, N-(9-ethyl-9H-carbazol-3-yl)-2-(3-methyl-oxo-3,4-dihydrophthalazin-1-yl) acetamide], on CpIMPDH [4], the “CpIMPDH inhibitory activity” value is “not active”.

In the case of `Cn1nc(CC(=O)Nc2ccc3c(c2)oc2ccccc23)c2ccccc2c1=O` [Compound D72, N-(dibenzo[b,d]furan-3-yl)-2-(3-methyl-4-oxo-3,4-dihydrophthalazin-1-yl)acetamide], the “CpIMPDH inhibitory activity” value on CpIMPDH [4] is reported as “not active”.

On to `CC(=O)c1cccc(C(C)(C)OC(=O)Nc2ccc(Cl)cc2)c1` [Compound P112], for which the IC50 was 0.39 µM against F. tularensis IMPDH and 0.52 µM against B. anthracis IMPDH.

With `C=C(C)c1cccc(C(C)(C)NC(=O)Nc2ccc3c(c2)OCCO3)c1` [Compound P113], the IC50 against F. tularensis IMPDH came out at 0.041 µM; at B. anthracis IMPDH, 0.11 µM.

With `CC(=NOC(C)(C)C)c1cccc(C(C)(C)NC(=O)Nc2ccc(Cl)c(C(F)(F)F)c2)c1` [Compound P114], the 50% inhibitory concentration (IC50) at F. tularensis IMPDH was 6.9 µM; on B. anthracis IMPDH it was 0.056 µM.

Consider `C/C(=N\OC(C)(C)C)c1cccc(C(C)(C)NC(=O)Nc2ccc(Cl)c([N+](=O)[O-])c2)c1` [Compound P127], for which the half-maximal inhibitory concentration (IC50) amounted to 1.8 µM against F. tularensis IMPDH and 0.094 µM at B. anthracis IMPDH.

Consider `C=C(C)c1cccc(C(C)(C)NC(=O)Nc2ccc(Cl)c(C(=O)O)c2)c1` [Compound P138], for which the half-maximal inhibitory concentration (IC50) against F. tularensis IMPDH came out at 0.12 µM; at B. anthracis IMPDH it was 0.067 µM.

`CC(NC(=O)c1ccc2oc(-c3ccncc3)nc2c1)c1ccccc1` (stereo not drawn) [Compound Q63]: the IC50 on F. tularensis IMPDH and on B. anthracis IMPDH was 200 µM each time.

On to `C[C@H](Oc1cccc(Cl)c1Cl)C(=O)Nc1ccc2nc(-c3cncs3)oc2c1` [Compound Q64, (S)-2-(2,3-dichlorophenoxy)-N-(2-(thiazol-5-yl)benzo[d]oxazol-6-yl) propanamide], for which the results for the 50% inhibitory concentration (IC50) against F. tularensis IMPDH and against B. anthracis IMPDH were 0.0937 µM and 0.203 µM, respectively.

Turning to `C[C@H](Nc1cccc(Cl)c1Cl)C(=O)Nc1ccc2oc(-c3ccncc3)nc2c1` [Compound Q67, (S)-2-(2,3-dichlorophenylamino)-N-(2-(pyridine-4-yl)benzo[d]oxazol-5-yl)propanamide], the IC50 at F. tularensis IMPDH turned out to be 0.0271 µM; against B. anthracis IMPDH, 0.0268 µM.

`C[C@H](Sc1cccc(Cl)c1Cl)C(=O)Nc1ccc2oc(-c3ccncc3)nc2c1` [Compound Q75]: the concentration for half-maximal inhibition (IC50) at F. tularensis IMPDH was determined as 0.192 µM; on B. anthracis IMPDH, 0.151 µM.

On to `NC[C@@H]1O[C@H](O[C@H]2[C@@H](O)[C@H](O[C@@H]3[C@@H](O)[C@H](N)C[C@H](N)[C@H]3O[C@H]3O[C@H](CO)[C@@H](O)[C@H](O)[C@H]3N)O[C@@H]2CO)[C@H](N)[C@@H](O)[C@@H]1O` [Paromomycin, paromomycin], for which the “range of reduction of fecal oocysts over experiments” value in the data set on C. parvum (paromomycin 2000 mg/kg daily oral gavage) is 73-99%. Also, the “average reduction of fecal oocysts” value with C. parvum (paromomycin 2000 mg/kg daily oral gavage, average of experiments) is 89%. For the same compound, in the data set on C. parvum (three daily doses (P131 3×83 mg/kg), 10,000 oocysts, counted day 4 post-infection), the “reduction of fecal oocysts, multiple daily dose regime” value is 88-95%. Moreover, the “accumulation in Caco-2 cells (in words)” value with Caco-2 cells is given as “high accumulation”. The “systemic distribution / oral bioavailability (literature, in words)” value in [5] is recorded as “poor oral bioavailability”.

As for `O=c1[nH]c(=O)n([C@H]2C[C@H](O)[C@@H](CO)O2)cc1C(F)(F)F` [Trifluoromethylthymidine], the “in vivo anticryptosporidial efficacy (literature, in words)” value with Cryptosporidium was “significant anticryptosporidial activity”.

`CC(=O)Oc1ccccc1C(=O)Nc1ncc([N+](=O)[O-])s1` [nitazoxanide]: the “systemic distribution / oral bioavailability (literature, in words)” value in data set [5] is “systemically distributed”. In the data set with Cryptosporidium, the “in vivo anticryptosporidial efficacy (literature, in words)” value is given as “little to no efficacy”.

For the compound “N-(6,7,8,9-tetrahydrodibenzo[b,d]furan-5-yl)-2-(3-methyl-4-oxo-3,4-dihydro-phthalazin-1-yl)acetamide [Compound D67]”, the “CpIMPDH inhibitory activity” value at CpIMPDH [4] was “enhanced potency”.
